From patent publication US8293726B2, “Treatment of cancer and other diseases” (Vianova Labs, Inc., priority 2005, dated 2012)
Values joined by “and” are separate entries in the source; they are usually repeats but may differ in a detail not shown here. Equal values may be shown once.

How the values were obtained:
human tumor cell lines = test: Human tumor cell lines in immunocompromised mice, general observations over all tumor types; format: in vivo
Procedure: Immunocompromised mice were used for this experiment. Mice were inbred in a sterile environment and fed ad libitum. Four groups of 40 mice, weighing approximately 20 g each (range: 17-25 g), were used for each tumor type. The human tumor cell lines used were the following: large B-cell lymphoma; squamous-cell carcinoma of the lung; ductal carcinoma breast; and adenocarcinoma of the lung. A suspension of tumor cells was injected in the peritoneum of immunocompromised mice. Following this, mice were examined and weighed daily. After 6-8 days, we observed the development of abdominal carcinomatosis and […]. At day 18, we observed the development of an abundant […], which increased the weight of the mice by approximately 20 g. At that time, mice were divided into four groups of 10. […] Assessment of tumor cell concentration in the […] abdominal metastases were measured on day 18 and every 2 days thereafter. In all mice, prior to treatment, we observed an increase in LDH ESR (>100) and a decrease in the hematocrit. Control (untreated) mice all died between day 21 and day 25 in all tumor types.

[1] = system: poorly differentiated lobular carcinoma of the right breast; test: Patient case: stage IV lobular breast carcinoma with liver, spleen and bone metastases; format: in vivo, human
From the text: A patient with a past medical history of anemia and mild chronic renal failure due to retroperitoneal fibrosis presented with a stage IV poorly differentiated lobular carcinoma of the right breast and liver, spleen and bone metastases. […] Three days after treatment, we observed a decrease in LDH level from 450 to 204.

uterine cancer stage IIB = test: Patient case: recurrent uterine cancer; format: in vivo, human; conditions: 60 mg/day, within three months; recurrent 3.2 cm pelvic mass before
From the text: A patient presented with uterine cancer stage IIB. They previously received cisplatin-based chemotherapy and radiotherapy. […] A cervical biopsy confirms the recurrence. […] Within three months, the tumor had disappeared on clinical exam and abdomino-pelvic CT scan.

[2] = system: breast cancer stage IV with lung and bone metastases; test: Patient case: breast cancer stage IV with lung and bone metastases, CA 15-3; format: in vivo, human; conditions: for CA 15-3: Femara, Decapeptyl
From the text: A patient presented with breast cancer stage IV with lung and bone metastases. They previously underwent a left radical mastectomy for a stage 2 colloidal mucinous adenocarcinoma Hormone receptors and c-erb B were negative. They received adjuvant chemotherapy (FAC) followed by radiotherapy. Later, a sternal bone metastasis appeared and was resected. […] They also developed lung metastases up to 4 cm size. They received chemotherapy with taxotere, navelbine, and pamidronate, followed by tamoxifen. This treatment gave an almost complete response in the lungs. Tamoxifen was replaced by Femara. The patient received radiotherapy on the spine (T4 and T1 2) and Zometa is administered along with Femara. […] Zometa and Femara were continued and Decapeptyl was added to the treatment.

[3] = system: pancreatic adenocarcinoma; test: Patient case: pancreatic adenocarcinoma, CA 19-9; format: in vivo, human; design: CA 19-9: unit not given beside the values
From the text: A diabetic and insulin dependent patient with a past history of lymphoma presented with a 3 cm tumor in the head of pancreas and a suspicion of hepatic metastasis.

experimental lymphoma = test: Histological analysis of liver and kidneys of mice with experimental lymphoma; format: in vivo; conditions: mouse with experimental lymphoma, orally daily 250 mg/kg
Procedure: FIGS. 11 and 12 are photomicrographs (450× and 900×, respectively) of part of the liver taken from a mouse with experimental lymphoma orally administered 24-ethyl-cholestane-3β,5α,6α-triol daily at a dosage of 250 mg/kg. Lymphocytic proliferation is insignificant.
Parenchymatous organs liver and kidneys received from mice with experimental lymphoma on the 15th day of observation and from mice treated with 24-ethyl-cholestane-3β,5α,6α-triol were taken for the histological analysis. Micropreparations were stained with hematoxilin eosin and examined by microscopy (FIGS. 9, 10, 11, and 12).

CC[C@H](CC[C@@H](C)[C@H]1CC[C@H]2[C@@H]3C[C@H](O)[C@@]4(O)C[C@@H](O)CC[C@]4(C)[C@H]3CC[C@]12C)C(C)C [24-ethyl-cholestane-3β,5α,6α-triol]
survival without recurrence (human tumor cell lines; mice that exhibited a complete response): three month survival without recurrence
general condition (human tumor cell lines; most of the treated mice): improvement in the general condition
hematological abnormalities (human tumor cell lines; most of the treated mice): normalization of hematological abnormalities
time to ascitic regression (rapid response to therapy) (human tumor cell lines; most of the treated mice): 1 to 2 days
tumor cells (human tumor cell lines; most of the treated mice, associated with an important tumor lysis): total clearance of tumor cells
CA 125 ([1]; After LC (five months), 60 mg/day, Before LC 125): 69
CA 15-3 ([1]; After LC (five months), 60 mg/day, Before LC 237): 86
renal failure and anemia ([1]; after treatment, 60 mg/day): improved
spleen metastasis on CT scan ([1]; after treatment, 60 mg/day): regressed
total Body MRI ([1]; after treatment, 60 mg/day): complete liver and spleen response
primitive breast mass on ultrasound ([1]; after treatment, regressed from 5): 3 cm
liver enzymes including LDH ([1]; five months after treatment commenced, 60 mg/day): returned to normal
LDH level ([1]; three days after treatment, 60 mg/day, decrease from 450): 204
tumor on clinical exam and abdomino-pelvic CT scan (uterine cancer stage IIB): disappeared
CA 15-3 ([2]; Month 5, 60 mg/day with Zometa, Month 0 prior to treatment 277 (nl < 35)): 156 U
CA 15-3 ([2]; Month 6, 60 mg/day with Zometa): 85 U and 52 U
CA 15-3 ([2]; Month 14, 60 mg/day with Zometa): 24 U
CA 15-3 ([2]; Month 16, 60 mg/day with Zometa): 19.5 U
symptoms ([2]; two weeks after the beginning of LC): totally asymptomatic
CA 19-9 ([3]; Day 1, 50 mg/day, Day 0 prior to treatment 884 (nl < 37)): 793
CA 19-9 ([3]; Day 32, 50 mg/day): 675
CA 19-9 ([3]; Day 59, 50 mg/day (dose then increased to 60 mg/day)): 1127
CA 19-9 ([3]; Day 128, 60 mg/day): 545
CT scan of the abdomen, pancreas ([3]; Day 200 of therapy, 3 cm tumor in the head of pancreas before): no masses seen
lymphocytic proliferation in liver (photomicrographs) (experimental lymphoma): insignificant
